Source: ChEMBL document CHEMBL1151604, “Enantiomerically pure synthesis and antiviral evaluation of [(2S, 3S)-bis(hydroxymethyl)azetidin-1-yl] purine nucleosides: Analogs of oxetanocin-A” (Bioorg Med Chem Lett, 1995)
In brackets after ≈: the same amount, converted by molar mass.

Columns and labels:
Format in all cases: functional, cell-based
Vero [1] = assay: In vitro evaluation of antiviral activity against HSV-1 (Herpes simplex virus-1) induced cytopathic effect in vero cells by a plaque reduction assay; details: Chlorocebus sabaeus
Vero [2] = assay: In vitro evaluation of antiviral activity against HSV-2 (Herpes simplex virus-2) induced cytopathic effect in vero cells by a plaque reduction assay; details: Chlorocebus sabaeus
MT4 = assay: In vitro evaluation of antiviral activity against HSV-1 (Herpes simplex virus-1) induced cytopathic effect in MT-4 cells by indirect immunofluorescence assay; details: Homo sapiens
Vero [3] = assay: Compound was evaluated for cytotoxicity against vero cells up to a concentration of 100 ug/mL; non toxic; details: Chlorocebus sabaeus

Compound | EC50 (Vero [1]) [µg/mL] | EC50 (Vero [2]) [µg/mL] | EC50 (MT4) [µg/mL] | Activity (Vero [3])
Nc1nc2c(ncn2COCCO)c(=O)[nH]1 [ACYCLOVIR] | 0.32 (≈ 1.42 µM) | 0.39 (≈ 1.73 µM) | – | –
Nc1nc(O)c2ncn(N3CC(CO)C3CO)c2n1 (configuration not stated) | 5.36 (≈ 20.1 µM) | 6.32 (≈ 23.7 µM) | 0.46 (≈ 1.73 µM) | Not toxic
Nc1ncnc2c1ncn2N1CC(CO)C1CO (configuration not stated) | 33.2 (≈ 133 µM) | 34.9 (≈ 139 µM) | 0.37 (≈ 1.48 µM) | Not toxic
Cc1cn([C@H]2C[C@H](N=[N+]=[N-])[C@@H](CO)O2)c(=O)[nH]c1=O [ZIDOVUDINE] | – | – | 0.0032 (≈ 0.012 µM) | –
O=c1[nH]cnc2c1ncn2[C@H]1CC[C@@H](CO)O1 [DIDANOSINE] | – | – | 0.46 (≈ 1.95 µM) | –
